Structures can show the parent of a compound that is named as a salt.
Experiments:
DBH = biological target: T1, DBH (Homo sapiens, UniProt P09172); settings: cited from earlier work; for DBH inhibition (in words): literature reports; for mode of DBH inhibition: phenethylalamine analogues
T1 sequence (P09172 1-617): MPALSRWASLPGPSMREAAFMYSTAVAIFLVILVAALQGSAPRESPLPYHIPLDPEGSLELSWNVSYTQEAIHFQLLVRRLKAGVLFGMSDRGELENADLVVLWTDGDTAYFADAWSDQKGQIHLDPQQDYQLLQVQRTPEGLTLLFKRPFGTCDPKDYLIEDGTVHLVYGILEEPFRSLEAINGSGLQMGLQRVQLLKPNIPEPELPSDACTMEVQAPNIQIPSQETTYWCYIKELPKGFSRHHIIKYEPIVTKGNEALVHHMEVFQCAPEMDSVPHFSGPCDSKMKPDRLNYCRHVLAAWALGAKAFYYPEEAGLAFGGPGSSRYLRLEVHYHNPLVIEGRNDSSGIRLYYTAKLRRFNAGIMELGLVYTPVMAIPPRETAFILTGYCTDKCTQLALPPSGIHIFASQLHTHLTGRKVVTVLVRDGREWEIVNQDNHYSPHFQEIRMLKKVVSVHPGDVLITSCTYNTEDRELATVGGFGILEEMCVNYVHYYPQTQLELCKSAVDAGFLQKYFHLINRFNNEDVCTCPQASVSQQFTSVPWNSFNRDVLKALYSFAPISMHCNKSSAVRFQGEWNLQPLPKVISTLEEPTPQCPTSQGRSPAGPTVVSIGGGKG

[1] = system: spontaneously hypertensive rats; assay: mean arterial blood pressure in spontaneously hypertensive rats; format: in vivo, rat; settings: 50 mg/kg intraperitoneally
Protocol: Further, spontaneously hypertensive rats were treated with a suspension or solution of N-(2-aminoethyl)-1-(3,5-difluorobenzyl)-2-mercaptoimidazole-5-carboxamid formate at a dose of 50 mg/kg intraperitoneally, and mean arterial blood pressure was monitored for 260 minutes using indwelling cannulae in the tail arteries.

O=C(O)c1ccc(CCC(Br)CBr)cn1 (stereo not drawn) [5-(3,4-dibromobutyl)picolinic acid]
DBH inhibition (in words) (DBH): DBH inhibitors

O=C(O)c1ccc(CCCCCl)cn1 [5-(4-chlorobutyl) picolinic acid]
DBH inhibition (in words) (DBH): inhibit DBH

NNCc1ccccc1 [benzylhydrazine]
mode of DBH inhibition (DBH): apparently act as competitive inhibitors

NOCc1ccccc1 [Benzyloxyamine, benzyloxyamine]
mode of DBH inhibition (DBH): apparently act as competitive inhibitors

NCCNC(=O)c1cnc(S)n1Cc1cc(F)cc(F)c1 [N-(2-Aminoethyl)-1-(3,5-difluorobenzyl)-2-mercaptoimidazole-5-carboxamide,formate]
blood pressure when monitoring was terminated ([1]; 260 minutes): blood pressure remained decreased when monitoring was terminated | mean arterial blood pressure reduction compared to vehicle-treated controls ([1]; tail artery cannulae, monitored for 260 minutes): significant blood pressure reductions | time following treatment to significant blood pressure reductions ([1]; vs vehicle-treated controls): ≤ 30 min

CN(C)C(=S)SCc1ccc(C(=O)O)nc1 [5-(dimethyldithiocarbamoylmethyl)picolinic acid]
DBH inhibition (in words) (DBH): DBH inhibitors

CCCCc1ccc(C(N)=O)nc1 [Bupicomide, 5-(n-butyl)picolinamine]
DBH inhibition (in words) (DBH): DBH inhibitor

Reference: patent US4837353A, “Dopamine-β-hydroxylase inhibitors” (SmithKline Beckman Corporation, priority 1988, dated 1989)
